Test results reported in article PMC5636118, “Recombinant laccase from Pediococcus acidilactici CECT 5930 with ability to degrade tyramine” (PLoS ONE, 2017).

Target: T1, Lpa5930; P. acidilactici CECT 5930 laccase (D2EK17 protein) (Pediococcus acidilactici, UniProt Z9B926UHL0)
T1 construct: pET28a, E. coli BL21(DE3)/pGro7; ~60 kDa by SDS-PAGE; D2EK17 is the UniProt entry of the strain 7_4 homologue
T1 sequence (Z9B926UHL0 1-477): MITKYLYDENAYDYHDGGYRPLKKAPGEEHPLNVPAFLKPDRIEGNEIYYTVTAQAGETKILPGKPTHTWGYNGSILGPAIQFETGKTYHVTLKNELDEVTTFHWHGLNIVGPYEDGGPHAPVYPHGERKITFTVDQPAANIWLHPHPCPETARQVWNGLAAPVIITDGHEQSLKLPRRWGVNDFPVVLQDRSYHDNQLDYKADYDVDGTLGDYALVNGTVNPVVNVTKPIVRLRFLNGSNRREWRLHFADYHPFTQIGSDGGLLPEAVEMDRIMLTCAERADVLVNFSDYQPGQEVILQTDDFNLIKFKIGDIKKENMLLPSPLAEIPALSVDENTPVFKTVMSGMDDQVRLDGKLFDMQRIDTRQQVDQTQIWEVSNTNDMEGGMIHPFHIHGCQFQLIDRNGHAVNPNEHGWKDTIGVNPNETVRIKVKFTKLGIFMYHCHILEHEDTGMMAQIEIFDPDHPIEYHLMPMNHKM
Experiment: ABTS oxidation, absorbance at […] nm, Michaelis-Menten fit
Assay type: biochemical
Conditions: acetate buffer pH 4.0, 28°C; apparent Km (abstract)

`CCn1c(=NN=c2sc3cc(S(=O)(=O)O)ccc3n2CC)sc2cc(S(=O)(=O)O)ccc21` [ABTS, 2,2′-azino-bis(3-ethylbenzothiazoline-6-sulfonic acid)] showed a Km of 1700 µM.
